“Also recorded” adds a separate entry of the source.
Experiments:
[1] = molecular target: human GPR52 (Homo sapiens (Human), UniProt Q9Y2T5); test: Glosensor cAMP assay in HEK293 cells transiently expressing human GPR52; assay type: cell-based; settings: relative to compound 4 as 100% and 0.5% DMSO as 0%, mean ± SEM, "—" not detected
[2] = Brain permeability in rats; assay type: in vivo; settings: male, Sprague-Dawley, brain/plasma, rat, IV 10 mg/kg, read-out: Brain/Plasma Ratio
Protocol: In Vivo PK and Brain Permeability Studies. Male Sprague-Dawley rats (n=3 per treatment group; […] Rats were randomly assigned to treatment groups. […] The rat was restrained manually at the designated time points (0.08, 0.25, 0.5, 1.0, 2.0, 4.0, 8.0, and 24 h post-dosing for IV; 0.25, 0.5, 1.0, 2.0, 4.0, 8.0, and 24 h post-dosing for PO). 100 μL of blood (yielding ˜50 μL of plasma) samples are taken from the animal's jugular vein and placed into micro K2EDTA tubes. Blood samples were placed on ice and centrifuged at 8000 rpm for 5 min at 4° C. to generate plasma sample within 0.5 h of collection. Brain samples were collected at 0.25 and 1 h post-dosing. All samples were stored at −20° C. The concentration of 12c in each sample was analyzed by Sundia MediTech Co., Ltd. The study and the related standard operating procedures were reviewed and approved by the Sundia Institutional Animal Care and Use Committee. The Sundia animal facility is approved with yearly inspection by the Shanghai Laboratory Animal Management Committee. All treatment assignments were blinded to investigators who performed PK assays and end point statistical analyses.

[3] = molecular target: 5-HT2C (Homo sapiens (Human), UniProt P28335); test: NIMH-PDSP broad-panel counter screening (binding)
[4] = tested on: GABAA; test: NIMH-PDSP broad-panel counter screening (binding); settings: mean percent inhibition of binding
[5] = In vivo PK in rats; settings: rat; for AUC(0-inf): mean ± SEM
Protocol: In Vivo PK and Brain Permeability Studies. […] 100 μL of blood (yielding ˜50 μL of plasma) samples are taken from the animal's jugular vein and placed into micro K2EDTA tubes. Blood samples were placed on ice and centrifuged at 8000 rpm for 5 min at 4° C. to generate plasma sample within 0.5 h of collection. Brain samples were collected at 0.25 and 1 h post-dosing. All samples were stored at −20° C. […] The Sundia animal facility is approved with yearly inspection by the Shanghai Laboratory Animal Management Committee. All treatment assignments were blinded to investigators who performed PK assays and end point statistical analyses. […] The peak concentration (Cmax) was directly obtained by visual inspection of the plasma concentration-time profile. The elimination rate constant (λ) was obtained by the least-squares fitted terminal log-linear portion of the slope of the plasma concentration-time profile. […] The area under the plasma concentration-time curve from 0 to time t (AUC0-t) was evaluated using the linear trapezoidal rule and further extrapolated to infinity (AUC0-∞) according to the following equation: AUC0-∞=AUC0-t+Clast/λ. The pharmacokinetic parameters were presented as mean±SEM.

[6] = tested on: HEK293 cells lacking GPR52; test: cAMP Glosensor control in HEK293 cells lacking GPR52 (empty vector); settings: HEK293 cells with empty vector, 0.1 nM-10 μM
[7] = tested on: C57/BL6 mice; test: Locomotor activity and amphetamine-induced hyperlocomotion in mice; settings: P<0.05 vs vehicle; for AMPH-induced horizontal activity, first 30 min after AMPH: AMPH 3 mg/kg IP
[8] = molecular target: hERG potassium channel (Homo sapiens (Human), UniProt Q12809); test: NIMH-PDSP broad-panel counter screening (binding)
[9] = male, Sprague-Dawley, plasma, IV 10 mg/kg
[10] = male, Sprague-Dawley, plasma, PO 20 mg/kg

Sequence of human GPR52 (Q9Y2T5 whole entry): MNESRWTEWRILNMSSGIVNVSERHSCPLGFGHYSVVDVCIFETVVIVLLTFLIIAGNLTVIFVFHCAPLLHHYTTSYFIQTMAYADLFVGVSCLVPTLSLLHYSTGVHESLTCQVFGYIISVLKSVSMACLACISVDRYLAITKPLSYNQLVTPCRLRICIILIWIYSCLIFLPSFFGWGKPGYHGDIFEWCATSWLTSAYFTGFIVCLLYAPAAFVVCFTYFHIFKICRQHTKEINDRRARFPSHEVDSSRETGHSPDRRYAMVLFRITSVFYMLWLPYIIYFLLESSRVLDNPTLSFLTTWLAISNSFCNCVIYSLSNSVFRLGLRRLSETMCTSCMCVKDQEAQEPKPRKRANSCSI
Sequence of hERG potassium channel (Q12809 whole entry): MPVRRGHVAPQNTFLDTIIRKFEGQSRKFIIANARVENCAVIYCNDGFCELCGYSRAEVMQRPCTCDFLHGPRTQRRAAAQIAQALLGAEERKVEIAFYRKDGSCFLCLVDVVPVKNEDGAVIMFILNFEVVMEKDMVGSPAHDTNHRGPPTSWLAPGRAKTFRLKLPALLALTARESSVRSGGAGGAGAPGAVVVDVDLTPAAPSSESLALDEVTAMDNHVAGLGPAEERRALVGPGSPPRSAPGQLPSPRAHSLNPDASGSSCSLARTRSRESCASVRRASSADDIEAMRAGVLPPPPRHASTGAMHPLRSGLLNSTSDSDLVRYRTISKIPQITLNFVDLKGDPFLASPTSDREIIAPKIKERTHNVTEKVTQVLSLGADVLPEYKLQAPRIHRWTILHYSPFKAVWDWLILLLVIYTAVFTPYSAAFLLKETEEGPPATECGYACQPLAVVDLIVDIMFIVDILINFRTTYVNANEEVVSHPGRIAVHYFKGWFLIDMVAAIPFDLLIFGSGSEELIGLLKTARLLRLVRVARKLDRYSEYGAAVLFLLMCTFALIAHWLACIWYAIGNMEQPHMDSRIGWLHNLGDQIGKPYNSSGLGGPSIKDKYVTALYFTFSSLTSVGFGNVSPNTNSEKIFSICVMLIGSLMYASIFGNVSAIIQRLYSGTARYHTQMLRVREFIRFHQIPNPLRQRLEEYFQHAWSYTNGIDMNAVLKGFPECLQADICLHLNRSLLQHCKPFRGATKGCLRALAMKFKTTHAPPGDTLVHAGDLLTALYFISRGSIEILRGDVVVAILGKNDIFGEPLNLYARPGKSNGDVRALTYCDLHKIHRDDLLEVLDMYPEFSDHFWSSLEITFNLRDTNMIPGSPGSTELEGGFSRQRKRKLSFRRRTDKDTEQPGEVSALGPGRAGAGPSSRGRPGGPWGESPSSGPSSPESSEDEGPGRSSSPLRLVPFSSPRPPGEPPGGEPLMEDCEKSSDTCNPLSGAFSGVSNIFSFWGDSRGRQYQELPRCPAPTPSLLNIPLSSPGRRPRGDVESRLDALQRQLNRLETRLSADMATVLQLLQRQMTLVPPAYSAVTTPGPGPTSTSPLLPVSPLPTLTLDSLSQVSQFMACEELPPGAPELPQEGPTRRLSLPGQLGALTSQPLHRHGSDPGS
Sequence of 5-HT2C (P28335 33-458, species assumed): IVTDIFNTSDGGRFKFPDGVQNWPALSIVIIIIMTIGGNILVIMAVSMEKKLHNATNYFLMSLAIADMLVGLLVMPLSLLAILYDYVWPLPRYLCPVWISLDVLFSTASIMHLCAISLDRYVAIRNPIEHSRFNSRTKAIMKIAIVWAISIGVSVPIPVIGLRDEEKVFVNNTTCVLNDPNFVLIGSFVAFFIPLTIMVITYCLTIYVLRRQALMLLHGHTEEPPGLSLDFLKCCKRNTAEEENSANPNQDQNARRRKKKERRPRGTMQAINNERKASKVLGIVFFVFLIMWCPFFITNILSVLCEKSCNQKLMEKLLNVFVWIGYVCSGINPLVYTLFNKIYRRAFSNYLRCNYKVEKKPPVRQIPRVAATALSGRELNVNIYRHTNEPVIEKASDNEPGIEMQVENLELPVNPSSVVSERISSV

**Q.** Which Emax ([1]; HEK293, cAMP assay, read-out: Emax (%)) does the source give for O=C(NCCO)c1cccc2c1CCN2c1cc(Cc2cc(F)cc(C(F)(F)F)c2)ncn1 [Compound 12c, 1-(6-(3-Fluoro-5-(trifluoromethyl)benzyl)pyrimidin-4-yl)-N-(2-hydroxyethyl)indoline-4-carboxamide] here?
**A.** The Emax was 136%.

**Q.** What about the “Emax (%)” value ([1]; cAMP assay) of the same compound?
**A.** Its value is 134%.

**Q.** What about the Kp at […] ([2]; 0.25 h) of the same compound?
**A.** Its Kp at […] is 0.28.

**Q.** And the Kp at 1 h ([2]; 1 h)?
**A.** The Kp at 1 h was 0.39.

**Q.** What about the Ki [3] of the same compound?
**A.** The Ki was over 10 µM.

**Q.** And the “% inhibition (10 μM)” value [4]?
**A.** The value was 5.98%.

**Q.** What about the Cmax [5, 9] of the same compound?
**A.** Its Cmax is 6730 ng/mL.

**Q.** What about the clearance [5, 9] of the same compound?
**A.** Its clearance is 18.3 mL/min/kg.

**Q.** And the AUC(0-inf) [5, 9]?
**A.** Its AUC(0-inf) is 9030 ng·h/mL.

**Q.** And the Vd ([5]; male, Sprague-Dawley, plasma, IV 10 mg/kg, read-out: Vss)?
**A.** The Vd was 1.5 L/kg.

**Q.** What about the Cmax [5, 10] of the same compound?
**A.** The Cmax was 3410 ng/mL.

**Q.** And the AUC(0-inf) [5, 10]?
**A.** The AUC(0-inf) was 13700 ng·h/mL.

**Q.** And the bioavailability ([5]; male, Sprague-Dawley, plasma, oral, 20 mg/kg)?
**A.** Its bioavailability is 76%.

**Q.** And the “CL” value ([5]; IV 10 mg/kg)?
**A.** The value was 18.3 ± 1.7 mL/min/kg.

**Q.** And the “CL” value ([5]; PO 20 mg/kg)?
**A.** Its value is 25 ± 5 mL/min/kg.

**Q.** What about the “Vss” value ([5]; PO 20 mg/kg) of the same compound?
**A.** Its value is 5.5 ± 1.16 L/kg.

**Q.** And the “F (%)” value ([5]; absolute oral bioavailability, PO 20 mg/kg vs IV 10 mg/kg)?
**A.** Its value is 76 ± 15%.

**Q.** What about the “cAMP increase in cells lacking GPR52” value [6] of the same compound?
**A.** Its value is “no increase in cAMP; also recorded: did not increase cAMP”.

**Q.** And the “AMPH-induced horizontal activity, first 30 min after AMPH” value ([7]; 3 mg/kg IP)?
**A.** Its value is “suppressed AMPH-induced horizontal activity”.

**Q.** What about the “horizontal activity/30 min after compound injection” value ([7]; 3 mg/kg IP) of the same compound?
**A.** The value was “suppressed horizontal activity”.

**Q.** What about the “AMPH-induced horizontal activity, first 30 min after AMPH” value ([7]; 10 mg/kg IP) of the same compound?
**A.** The value was “suppressed AMPH-induced horizontal activity”.

**Q.** What about the “horizontal activity/30 min after compound injection” value ([7]; 10 mg/kg IP) of the same compound?
**A.** The value was “suppressed horizontal activity”.

**Q.** What about the “hERG potassium channel binding activity” value ([8]; 10 μM) of the same compound?
**A.** Its value is “did not show any”.

**Q.** What about the “% inhibition (10 μM)” value ([8]; hERG, mean percent inhibition of binding) of the same compound?
**A.** Its value is 11.04%.
